pIC50: −log10 of the molar value. Counter-ions that a name gives are not always drawn. Like-named read-outs stand apart in the source and are kept apart here. Non-standard residues stand in square brackets, D forms with d. Residues, ends and D or L forms follow the SMILES beside them. *: point of attachment. Phg = N[C@H](C(=O)O)c1ccccc1; Cbz = O=C(OCc1ccccc1)*; OtBu = CC(C)(C)O*
Legend:
caspase-7 = caspase-7 (Homo sapiens (Human), UniProt P55210); test: Caspase-7 Inhibitor Drug Screening Kit, fluorometric enzymatic assay; settings: for IC50: read-out: Caspase enzymatic activity, IC50 (uM) Caspase 7, 30-minute incubation at 37° C., AFC liberation
Experimental: (§1) The level of inhibition of caspase-1, -3, -5, -7, -9 activity was determined by comparison of the relative fluorescence intensity in samples with or without the compound.

caspase-9 = caspase-9 (Homo sapiens (Human), UniProt P55211); test: Caspase-9 Inhibitor Drug Screening Kit, fluorometric enzymatic assay; settings: for IC50: read-out: Caspase enzymatic activity, IC50 (uM) Caspase 9, 30-minute incubation at 37° C., AFC liberation
Experimental: as §1

caspase-5 = caspase-5 (Homo sapiens (Human), UniProt P51878); test: Caspase-5 Inhibitor Drug Screening Kit, fluorometric enzymatic assay; settings: for IC50: read-out: Caspase enzymatic activity, IC50 (uM) Caspase 5, 30-minute incubation at 37° C., AFC liberation
Experimental: as §1

caspase-3 = caspase-3 (Homo sapiens (Human), UniProt P42574); test: Caspase-3 Inhibitor Drug Screening Kit, fluorometric enzymatic assay; format: biochemical; settings: for IC50: 30-minute incubation at 37° C., AFC liberation
Experimental: as §1

Hela cells = test: Inhibition of proteolytic cleavage of PARP in staurosporine-treated live Hela cells; format: cell-based; settings: for effectivity in inhibiting PARP cleavage (in words): relative to DEVD-fmk
Experimental: To test the efficacy of caspase-3 inhibitors at the cellular level, the ability of selected compounds to inhibit the proteolytic cleavage of PARP (poly ADP-ribose polymerase) was evaluated in live Hela cells.
Briefly, in this assay Hela cells are seeded in 96 well plates and incubated for 4 hours with staurosporine, a well characterized inducer of apoptosis, alone or together with different concentrations of compound (50, 25, 10 and 3 uM). After formaldehyde-based fixation, the cells are stained with a fluorescein-labeled anti-cleaved PARP antibody (Cell signaling, Cat#: 9547) and counterstained with Hoechst33342 (Invitrogen, Cat#: H3570) to mark all nuclei. Fluorescence images are taken on a Cellomics™ microscope system (Thermo Scientific, Pittsburgh, USA) with the Hoechst stain in the blue channel and the cleaved PARP antibody stain in the green channel. The percentage of cleaved PARP positive cells is determined by calculating the ratio between nuclei with a cleaved PARP antibody staining above a certain threshold and all (Hoechst positive) nuclei. The efficacy of caspase-3 inhibition is determined by calculating the ratio between cleaved PARP positive cells after staurosporine incubation together with compounds and staurosporine incubation without compounds.

caspase-1 = caspase-1 (Homo sapiens (Human), UniProt P29466); test: Caspase-1 Inhibitor Drug Screening Kit, fluorometric enzymatic assay; settings: for IC50: read-out: Caspase enzymatic activity, IC50 (uM) Caspase 1, 30-minute incubation at 37° C., AFC liberation
Experimental: as §1

Caspase 3/7 (Glo3/7) = test: Glo3/7 assay
[1] = Homo sapiens, 50 uM, relative to DEVDFMK, read-out: % of inhibition with compound relative to DEVDFMK
[2] = Homo sapiens, read-out: % inhibition of PARP cleavage at 50 uM compound, staurosporine 4 hours, 50 uM compound

caspase-9, sequence (P55211 1-315): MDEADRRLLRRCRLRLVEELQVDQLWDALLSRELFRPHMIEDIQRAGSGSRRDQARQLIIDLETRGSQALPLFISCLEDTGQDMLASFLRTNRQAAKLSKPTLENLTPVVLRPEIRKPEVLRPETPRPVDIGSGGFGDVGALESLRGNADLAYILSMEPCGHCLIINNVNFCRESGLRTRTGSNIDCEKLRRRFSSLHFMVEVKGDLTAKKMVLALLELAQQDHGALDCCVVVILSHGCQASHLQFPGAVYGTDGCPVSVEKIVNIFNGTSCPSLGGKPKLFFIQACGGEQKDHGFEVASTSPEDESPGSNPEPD
caspase-9, sequence (P55211 331-416): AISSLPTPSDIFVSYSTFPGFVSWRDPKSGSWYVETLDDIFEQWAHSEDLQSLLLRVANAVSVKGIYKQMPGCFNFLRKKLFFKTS
caspase-3, sequence (P42574 29-175): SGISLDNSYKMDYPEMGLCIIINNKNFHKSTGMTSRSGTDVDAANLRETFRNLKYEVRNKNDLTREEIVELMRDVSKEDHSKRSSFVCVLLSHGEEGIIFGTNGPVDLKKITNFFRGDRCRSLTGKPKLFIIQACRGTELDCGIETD
caspase-3, sequence (P42574 176-277): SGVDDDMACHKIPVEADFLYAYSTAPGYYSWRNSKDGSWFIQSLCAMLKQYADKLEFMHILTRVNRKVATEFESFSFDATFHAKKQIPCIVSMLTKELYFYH
caspase-7, sequence (P55210 24-198): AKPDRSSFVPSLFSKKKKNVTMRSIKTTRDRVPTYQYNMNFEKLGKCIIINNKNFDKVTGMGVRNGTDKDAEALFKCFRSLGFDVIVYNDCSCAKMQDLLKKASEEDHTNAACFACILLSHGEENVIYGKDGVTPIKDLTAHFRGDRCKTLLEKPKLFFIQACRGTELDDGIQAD
caspase-7, sequence (P55210 207-303): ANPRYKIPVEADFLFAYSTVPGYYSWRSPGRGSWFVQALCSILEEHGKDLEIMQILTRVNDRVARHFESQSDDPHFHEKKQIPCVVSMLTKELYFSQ
caspase-1, sequence (P29466 120-297): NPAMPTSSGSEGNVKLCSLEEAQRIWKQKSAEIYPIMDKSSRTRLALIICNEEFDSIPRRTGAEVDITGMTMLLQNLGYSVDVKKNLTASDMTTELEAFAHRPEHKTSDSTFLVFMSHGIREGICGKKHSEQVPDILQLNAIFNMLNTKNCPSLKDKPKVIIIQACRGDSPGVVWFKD
caspase-1, sequence (P29466 317-404): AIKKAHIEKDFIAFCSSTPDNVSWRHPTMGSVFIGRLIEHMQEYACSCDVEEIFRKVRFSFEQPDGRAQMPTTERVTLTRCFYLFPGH
caspase-5, sequence (P51878 137-327): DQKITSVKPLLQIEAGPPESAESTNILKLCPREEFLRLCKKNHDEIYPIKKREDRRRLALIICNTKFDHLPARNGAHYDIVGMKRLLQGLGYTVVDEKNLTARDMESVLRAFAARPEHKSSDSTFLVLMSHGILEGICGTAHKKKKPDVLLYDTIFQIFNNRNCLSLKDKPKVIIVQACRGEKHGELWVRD
caspase-5, sequence (P51878 347-434): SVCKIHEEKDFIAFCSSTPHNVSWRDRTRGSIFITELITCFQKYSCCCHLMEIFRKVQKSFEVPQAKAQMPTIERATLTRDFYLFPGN

`CC(C)[C@H](NC(=O)[C@H](Cc1ccc(O)cc1)NC(=O)OCc1ccccc1)C(=O)N[C@@H](C)C(=O)N[C@H](/C=C/S(=O)(=O)c1ccccc1)CC(=O)O` [Compound 96, Z-Tyr-Val-Ala-Asp phenyl vinyl sulfone] gave an IC50 (caspase-7) greater than 10 µM, an IC50 (caspase-9) greater than 10 µM and an IC50 (caspase-5) greater than 3.33 µM. The IC50 (caspase-3) was greater than 10 µM.

`CC(C)(C)OC(=O)C[C@@H](/C=C/S(=O)(=O)c1ccccc1)NC(=O)OC(C)(C)C` [Compound 36, Boc-Asp-vinyl phenyl sulfone] was tested, and the IC50 (caspase-3) was greater than 2 µM.

`CC(C)[C@H](NC(=O)[C@H](Cc1c[nH]c2ccccc12)NC(=O)[C@H](CC(=O)O)NC(=O)OCc1ccccc1)C(=O)N[C@H](/C=C/S(C)(=O)=O)CC(=O)O` [Compound 88, Z-Asp-Trp-Val-Aspmethyl vinyl sulfone] gave an IC50 (caspase-9) greater than 3.33 µM, an IC50 (caspase-5) greater than 3.33 µM and an inhibition at 50 µM (Hela cells; [1]) of 50%. It also gave an inhibition at 50 µM (Hela cells; [2]) of 45%.

With `CC(C)[C@H](NC(=O)[C@H](CCC(=O)O)NC(=O)[C@H](Cc1ccc(O)cc1)NC(=O)OCc1ccccc1)C(=O)N[C@H](/C=C/S(C)(=O)=O)CC(=O)O` [Compound 82, Z-Tyr-Glu-Val-Aspmethyl vinyl sulfone] the IC50 (caspase-7) was greater than 5 µM and the IC50 (caspase-5) was greater than 3 µM.

`CS(=O)(=O)/C=C/[C@@H](N)CC(=O)O.Cc1ccc(S(=O)(=O)O)cc1` [Compound 93, Aspmethyl vinyl sulfone tosyl salt] was tested, and the “activity against caspase-3 (in words)” value (caspase-3) was “devoid of any activity” and the IC50 (caspase-3) was greater than 10 µM.

Work on `COC(=O)CC[C@H](NC(=O)[C@H](CC(=O)OC)NC(=O)OCc1ccccc1)C(=O)N[C@H](C(=O)N[C@@H](CC(=O)OC)C(=O)CF)C(C)C` [DEVD-fmk, reference compound] yielded an inhibition at 50 µM (Hela cells; [2]) of 85% and a pIC50 (Hela cells; Homo sapiens, staurosporine) of 4.70.

With `CC(C)[C@H](NC(=O)[C@@H](Cc1ccc2ccccc2n1)NC(=O)[C@H](CC(=O)O)NC(=O)OCc1ccccc1)C(=O)N[C@H](/C=C/S(C)(=O)=O)CC(=O)O` (stereo in doubt) [Compound 71, Z-Asp-(D,L Ala(2′-quinolyl))-Val- Aspmethyl vinylsulfone] the IC50 (caspase-7) was 8.9 µM, the IC50 (caspase-9) was greater than 10 µM and the IC50 (caspase-5) was greater than 10 µM. It also gave an IC50 (caspase-1) greater than 10 µM.

Work on `CC(C)[C@H](NC(=O)[C@H](Cc1ccc(O)cc1)NC(=O)[C@H](CC(=O)O)NC(=O)OCc1ccccc1)C(=O)N[C@H](/C=C/S(C)(=O)=O)CC(=O)O` [Compound 76, Z-Asp-Tyr-Val-Aspmethyl vinyl sulfone] yielded an IC50 (Caspase 3/7 (Glo3/7)) of 0.04 µM, an IC50 (caspase-9) greater than 3.33 µM and an IC50 (caspase-5) greater than 3.33 µM. The “reduction of the percentage of PARP positive cells after staurosporine treatment” value (Hela cells) was “more than 50%”, the inhibition at 50 µM (Hela cells; [1]) was 60% and the inhibition at 50 µM (Hela cells; [2]) was 55%. It also gave an IC50 (caspase-1) greater than 3.33 µM.

`CC(C)[C@H](NC(=O)[C@H](Cc1ccc2ccccc2n1)NC(=O)[C@H](CC(=O)O)NC(=O)OCc1ccccc1)C(=O)N[C@H](/C=C(\Cl)S(C)(=O)=O)CC(=O)O` [Compound 48, Z-Asp-Ala(2′-quinolyl)-Val-Asp- αchlorovinyl methylsulfone] gave an IC50 (Caspase 3/7 (Glo3/7)) of 0.1 µM, an IC50 (caspase-5) greater than 3.33 µM and an inhibition at 50 µM (Hela cells; [1]) of 65%. The inhibition at 50 µM (Hela cells; [2]) was 45%, the “effectivity in inhibiting PARP cleavage (in words)” value (Hela cells) was “showing effectivity” and the IC50 (caspase-1) was greater than 3.33 µM.

`CC(C)[C@H](NC(=O)[C@H](Cc1ccc2ccccc2n1)NC(=O)[C@H](CC(=O)OC(C)(C)C)NC(=O)OCc1ccccc1)C(=O)N[C@H](/C=C/S(=O)(=O)N1CCOCC1)CC(=O)OC(C)(C)C` [Compound 66, Z-Asp(β-tert-Butyl)-Ala(2′-quinolyl)-Val-Asp(β-tert-Butyl)morpholine vinyl sulfone] gave an inhibition at 50 µM (Hela cells; [2]) of 25%.

For `CC(C)(C)OC(=O)C[C@H](N)/C=C/S(C)(=O)=O.Cc1ccc(S(=O)(=O)O)cc1` (stereo in doubt) [Compound 33, Asp(β-tert-butyl)methyl vinyl sulfone tosyl salt], the “activity against caspase-3 (in words)” value (caspase-3) was “devoid of any activity” and the IC50 (caspase-3) was greater than 10 µM.

Compound `CC(C)[C@H](NC(=O)[C@H](CCC(=O)O)NC(=O)[C@H](CC(=O)O)NC(=O)OCc1ccccc1)C(=O)N[C@H](/C=C/S(C)(=O)=O)CC(=O)O` [Compound 59, Z-Asp-Glu-Val-Aspmethyl vinyl sulfone] has a pIC50 (caspase-7) of 7.38, a pIC50 (caspase-9) of 6.29 and an IC50 (caspase-5) greater than 3.33 µM. For the same compound, the inhibition at 50 µM (Hela cells; [1]) was 70%, the inhibition at 50 µM (Hela cells; [2]) was 45% and the “effectivity in inhibiting PARP cleavage (in words)” value (Hela cells) was “showing effectivity”.

Work on `CC(C)[C@H](NC(=O)[C@@H](NC(=O)[C@H](CC(=O)O)NC(=O)OCc1ccccc1)C1Cc2ccccc2C1)C(=O)N[C@H](/C=C/S(=O)(=O)C(C)C)CC(=O)O` [Compound 68, Z-Asp-Indanylglycine-Val-Aspisopropyl vinyl sulfone] yielded an IC50 (caspase-9) greater than 3.33 µM, an IC50 (caspase-5) greater than 3.33 µM and an inhibition at 50 µM (Hela cells; [1]) of 50%. The inhibition at 50 µM (Hela cells; [2]) was 30% and the IC50 (caspase-1) was greater than 3.33 µM.

For `CC(C)[C@H](NC(=O)[C@@H](NC(=O)[C@H](CC(=O)OC(C)(C)C)NC(=O)OCc1ccccc1)c1ccccc1)C(=O)O` [Compound 16, Z-Asp(β-tert-Butyl)-Phg-Val-OH.] (Cbz-Asp(OtBu)-[Phg]-Val-OH), the “activity against caspase-3 (in words)” value (caspase-3) was “devoid of any activity” and the IC50 (caspase-3) was greater than 2 µM.

Compound `CC(C)[C@H](NC(=O)[C@H](Cc1ccc2ccccc2n1)NC(=O)[C@H](CC(=O)O)NC(=O)OCc1ccccc1)C(=O)N[C@H](/C=C/S(C)(=O)=O)CC(=O)O` [Compound 55, Z-Asp-Ala(2′-quinolyl)-Val-Aspmethyl vinyl sulfone] has an IC50 (Caspase 3/7 (Glo3/7)) of 0.1 µM, an IC50 (caspase-9) greater than 3.33 µM and an inhibition at 10 µM (caspase-9; read-out: Inhibition of Caspase-9) of 57%. For the same compound, the “inhibitory activity for caspase-9 (in words)” value (caspase-9; tested dose-range 1-3333 nM) was “No significant inhibitory activity”, the IC50 (caspase-5) was greater than 10 µM and the inhibition at 10 µM (caspase-5; read-out: Inhibition of Caspase-5) was 21%. The “inhibitory activity for caspase-5 (in words)” value (caspase-5; tested dose-range 1-3333 nM) was “No significant inhibitory activity”, the inhibition at 50 µM (Hela cells; [1]) was 60% and the inhibition at 50 µM (Hela cells; [2]) was 40%. The “effectivity in inhibiting PARP cleavage (in words)” value (Hela cells) was “showing effectivity”, the IC50 (caspase-1) was greater than 10 µM and the inhibition at 10 µM (caspase-1; read-out: Inhibition of Caspase-1) was 25%. The “inhibitory activity for caspase-1 (in words)” value (caspase-1; tested dose-range 1-3333 nM) was “No significant inhibitory activity”.

`CC(C)[C@H](NC(=O)[C@H](Cc1ccc2ccccc2n1)NC(=O)[C@H](CC(=O)O)NC(=O)OCc1ccccc1)C(=O)N[C@H](/C=C/S(=O)(=O)Oc1ccccc1)CC(=O)O` [Compound 65, Z-Asp-Ala(2′-quinolyl)-Val-Aspphenoxy vinyl sulfone] showed an IC50 (Caspase 3/7 (Glo3/7)) of 0.2 µM, an IC50 (caspase-5) greater than 3.33 µM and an inhibition at 50 µM (Hela cells; [1]) of 40%. It also gave an inhibition at 50 µM (Hela cells; [2]) of 30%.

With `CC(C)[C@H](NC(=O)[C@@H](Cc1ccc2ccccc2n1)NC(=O)[C@H](CC(=O)O)NC(=O)OCc1ccccc1)C(=O)N[C@H](/C=C/S(=O)(=O)c1ccccc1)CC(=O)O` (stereo in doubt) [Compound 70, Z-Asp-(D,L Ala(2′-quinolyl))-Val- Aspphenyl vinylsulfone] the IC50 (caspase-7) was greater than 10 µM, the IC50 (caspase-9) was greater than 10 µM and the IC50 (caspase-5) was greater than 10 µM. It also gave an IC50 (caspase-3) of 0.3 µM.

`CC(C)[C@H](NC(=O)[C@H](Cc1ccccn1)NC(=O)[C@H](CC(=O)O)NC(=O)OCc1ccccc1)C(=O)N[C@H](/C=C/S(=O)(=O)c1ccccc1)CC(=O)O` [Compound 85, Z-Asp-Ala(2′-pyridyl)-Val-Aspphenyl vinylsulfone] showed an IC50 (caspase-9) greater than 3.33 µM, an IC50 (caspase-5) greater than 3.33 µM and an inhibition at 50 µM (Hela cells; [2]) of 40%. For the same compound, the IC50 (caspase-1) was greater than 3.33 µM.

`CC(C)(C)OC(=O)C[C@H](N)/C=C/S(=O)(=O)c1ccccc1` [Compound 37, Asp Vinyl phenyl sulfone tosyl salt] was tested, and the IC50 (caspase-3) was greater than 2 µM.

Work on `COC(=O)C[C@@H](/C=C/S(C)(=O)=O)NC(=O)[C@@H](NC(=O)[C@@H](NC(=O)[C@H](CC(=O)OC)NC(=O)OCc1ccccc1)C1Cc2ccccc2C1)C(C)C` [Compound 51, Z-Asp(β-methyl)-Indanylglycine-Val- Asp(β-methyl)methyl vinyl sulfone] yielded an IC50 (caspase-7) greater than 3 µM, an IC50 (caspase-9) greater than 3 µM and an IC50 (caspase-5) greater than 3 µM. For the same compound, the inhibition at 50 µM (Hela cells; [1]) was 80%, the inhibition at 50 µM (Hela cells; [2]) was 65% and the IC50 (caspase-1) was greater than 3 µM.

In the case of `Cc1ccc(S(=O)(=O)N[C@@H](Cc2ccc3ccccc3n2)C(=O)N[C@H](C(=O)N[C@H](/C=C(\Cl)S(C)(=O)=O)CC(=O)O)C(C)C)cc1` [Compound 50, Ts-Ala(2′quinolyl)-Val-Asp- αchlorovinyl methylsulfone], the “activity against caspase-3 (in words)” value (caspase-3) was “The same result was observed”, the IC50 (caspase-3) was greater than 3.33 µM and the IC50 (caspase-1) was greater than 3.33 µM.

`CC(C)[C@H](NC(=O)OCc1ccccc1)C(=O)N[C@H](/C=C/S(C)(=O)=O)CC(=O)O` [Compound 61, Z-Val-Aspmethyl vinyl sulfone] was tested, and the IC50 (caspase-7) was greater than 3.33 µM, the IC50 (caspase-9) was greater than 3.33 µM and the IC50 (caspase-5) was greater than 3.33 µM. The inhibition at 50 µM (Hela cells; [1]) was 5%, the inhibition at 50 µM (Hela cells; [2]) was 5% and the “activity against caspase-3 (in words)” value (caspase-3) was “abolished completely the activity”. For the same compound, the IC50 (caspase-3) was greater than 3.33 µM and the IC50 (caspase-1) was greater than 3.33 µM.

— patent US10167313B2, “Selective caspase inhibitors and uses thereof” (Genesis Technologies Limited, priority 2008, dated 2019)
